PubChem BioAssay (NCI)
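Results reflect a 48-hour exposure of cells in 96-well plates to compound at five concentrations. Here, GI50 denotes the concentration required for 50% inhibition of growth. TGI: total growth inhibition.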

What was measured:
Test in all cases: DTP human tumour cell line panel, 48 h
COLO 205 colon = system: COLO 205 colon
HOP-62 NSCLC = system: HOP-62 NSCLC
MCF7 breast = system: MCF7 breast
HCT-15 colon = system: HCT-15 colon
SR leukemia = system: SR leukemia
RPMI-8226 leukemia = system: RPMI-8226 leukemia
SNB-75 CNS = system: SNB-75 CNS
SK-MEL-2 melanoma = system: SK-MEL-2 melanoma
K-562 leukemia = system: K-562 leukemia
RXF 393 renal = system: RXF 393 renal

Row | SMILES | TGI (COLO 205 colon) [µM] | TGI (HOP-62 NSCLC) [µM] | TGI (MCF7 breast) [µM] | TGI (HCT-15 colon) [µM] | TGI (SR leukemia) [µM] | TGI (RPMI-8226 leukemia) [µM] | TGI (SNB-75 CNS) [µM] | TGI (SK-MEL-2 melanoma) [µM] | TGI (K-562 leukemia) [µM] | TGI (RXF 393 renal) [µM] | GI50 (SR leukemia) [µM] | GI50 (RPMI-8226 leukemia) [µM]
1 | Cc1ccc(NC(=S)NNC(=O)c2cc(-c3ccccc3)nc3ccccc23)cc1C | 34.2 | 54.8 | 47.8 | 60.5 | 36.4 | 59.2 | 56.5 | 37.3 | 79.5 | 55.5 |  | 
2 | CO/N=C1/C(n2[nH]c(=O)n(-c3ccccc3)c2=O)C2C=CC1n1c(=O)n(-c3ccccc3)c(=O)n12 (stereo not drawn) | > 100 |  | > 100 | > 100 | > 100 | > 100 | > 100 | > 100 | > 100 | > 100 |  | 
3 | COc1ccc2c(-c3ccc(O)cc3)c(Oc3ccccc3)c(=O)oc2c1 | > 100 | > 100 | > 100 | > 100 | > 23.4 | > 100 | > 66.5 | > 100 | > 100 | > 47.8 |  | 
4 | Cc1ccc(N2C(=O)CC(=O)N(NC(=O)C(C)Oc3ccccc3C)C2=S)cc1 (stereo not drawn) | > 100 | > 100 | > 100 | > 100 | > 100 | > 100 | > 100 | > 100 | > 100 | > 100 |  | 
5 | C(/C=N/NC1=NCCN1)=N\NC1=NCCN1 | > 100 | > 100 | > 100 | > 100 | > 100 | > 100 | > 100 | > 100 | 31.6 | > 100 |  | 
6 | COc1cccc2c1C(=O)c1ccc3cc(CO)cc(O)c3c1C2=O | 3.32 | 6.33 | 1.56 | 1.17 | 1.31 | 5.1 | 9.4 | 2.99 | 3.74 | 7.09 |  | 
7 | COc1ccc(C2c3cc4c(cc3OC(N3CCOCC3)C2C)OCO4)c(OC)c1 (stereo not drawn) | > 57.6 | 31.5 | 33.8 | > 75.9 | > 68 | 19.9 | 23.4 | 21.7 | 25 | 10.7 |  | 
8 | N#Cc1nsnc1-c1nc(-c2nsnc2C#N)nc(-c2nsnc2C#N)n1 | > 100 | > 100 | > 100 | > 100 | > 100 | > 100 | > 100 | > 100 | > 100 | > 100 |  | 
9 | CCOC(=O)CC[C@@H](NC(=O)c1ccc(NCc2ccc3nc(OC)c(OC)nc3c2)cc1)C(=O)OCC | 69.4 | > 100 | > 31.6 | > 100 | > 87.4 | > 100 | 24.9 | 40.6 | > 100 | > 58.1 |  | 
10 | O=[N+]([O-])/C(C(Cl)=C(Cl)Cl)=C(/Sc1ccccc1)N1CCOCC1 | 11 | 33.5 | 8.53 | 10.9 | 5.62 | 5.73 | 24.4 | 18.1 | 3.89 | 3.7 |  | 
11 | O=C(O)c1cc2c(cc1S(=O)(=O)O)C1C(C3C2C2(Cl)C(Cl)=C(Cl)C3(Cl)C2(Cl)Cl)C2(Cl)C(Cl)=C(Cl)C1(Cl)C2(Cl)Cl (stereo not drawn) | > 100 | 89.1 | > 100 | > 100 | 74.7 | > 100 | > 100 | 73.4 | > 100 | > 100 |  | 
12 | CCOC(=O)NNC1(SC)NC(=O)c2c(cc(Cl)oc2=O)O1 (stereo not drawn) | 25.9 | 25.6 | 5.84 | 5.28 | 6.69 | 7.65 | 22.2 | 24 | 9.07 | 6.93 |  | 
13 | C/C=C/OC1C(C2COC(C)(C)O2)OC2OC(C)(C)OC21 (stereo not drawn) |  | > 100 | > 100 | > 100 | > 100 | > 100 | > 100 | > 100 | > 100 | > 100 |  | 
14 | C=CC1(CBr)CCC(C(C)(C)Br)O1 (stereo not drawn) | 20.6 | 30 | 34.1 | 23.8 | 8.58 | 6.11 | 20.4 | 28.1 | > 25.9 | 27.3 |  | 
15 | C=C1CC(CNc2cc(Cl)nc(N)n2)C1 | > 100 | > 100 | > 100 | > 100 | > 100 | > 100 | > 100 | > 100 | > 100 | > 100 |  | 
16 | OCC1CCCCN1Cc1nc2ccc(Cl)cc2[nH]1 (stereo not drawn) | > 100 | > 100 | > 100 | > 100 | > 100 | > 100 | > 100 | > 100 | > 100 | > 100 |  | 
17 | CC(=O)NC1CCC(NC(=O)OC(C)(C)C)C(NC(=O)OC(C)(C)C)C1 (stereo not drawn) | > 100 | > 100 | > 100 | > 100 | > 100 | > 100 | > 100 | > 100 | > 100 | > 100 |  | 

Row | SMILES | TGI (COLO 205 colon) [µM] | TGI (HOP-62 NSCLC) [µM] | TGI (MCF7 breast) [µM] | TGI (HCT-15 colon) [µM] | TGI (SR leukemia) [µM] | TGI (RPMI-8226 leukemia) [µM] | TGI (SNB-75 CNS) [µM] | TGI (SK-MEL-2 melanoma) [µM] | TGI (K-562 leukemia) [µM] | TGI (RXF 393 renal) [µM] | GI50 (SR leukemia) [µM] | GI50 (RPMI-8226 leukemia) [µM]
18 | CCOC(=O)NC(N(C)C(C(C)C)P(=O)(OCC)OCC)(C(F)(F)F)C(F)(F)F (stereo not drawn) | > 100 | > 100 | > 100 | > 100 | > 100 | > 100 | > 100 | > 100 | > 100 | > 100 |  | 
19 | CCOC(=O)C1(Cc2ccccc2)CCN(C(=O)c2ccccc2)C2C1C2(Cl)Cl (stereo not drawn) | 35.9 | 87.2 | 71 | > 100 | 69.7 | 38.2 | 62.6 | 31.1 | > 100 | 36.5 |  | 
20 | O=C(c1ccco1)N1CCN(C(=O)c2ccco2)C1=S | 21.2 | 33.1 | 11 | 26.3 | 12.1 | 7.31 | 26.2 | 31 | 16.5 | 12 |  | 
21 | O=C(NCCCCNCCCNC(=O)C(F)(F)F)C(F)(F)F | > 100 | > 100 | > 100 | > 100 | > 100 | > 100 | > 100 | > 100 | > 100 | > 100 |  | 
22 | O=[N+]([O-])C(=C/C1CCCCC1)/C(=C\C1CCCCC1)[N+](=O)[O-] | 9.29 | 19.1 | 26.4 | 3.76 | 6.89 | 5.4 | 31.3 | 37.8 | > 82 | 3.93 |  | 
23 | c1ccc2c(Cc3c[nH]c4ccccc34)c[nH]c2c1 | 27.8 | 33.8 | > 100 | > 100 | 34.2 | 68.8 | 36.8 | 52.6 | > 100 | 33.1 |  | 
24 | C#CCSc1cnc2ccccc2c1Sc1c[nH]c2ccccc2c1=O | > 100 | > 100 | > 100 | > 100 | > 100 | > 100 | 83.3 | 53.5 | > 100 | 36.1 |  | 
25 | COc1ccc(CN=C2Nc3ccncc3S(=O)(=O)N2c2ccccc2)cc1 | > 100 | > 100 | > 100 | > 100 | 73.3 | 42.3 | > 100 | > 100 | 93.2 | > 100 |  | 
26 | CC1=NN(C(=O)CC(=O)Nc2cccc(Cl)c2)C(=O)C1N=Nc1ccc(S(=O)(=O)c2ccc(N=NC3C(=O)N(C(=O)CC(=O)Nc4cccc(Cl)c4)N=C3C)cc2)cc1 (stereo not drawn) | > 100 | > 100 | > 100 | > 100 | > 100 | > 100 | > 100 | > 100 | > 100 | > 100 |  | 
27 | COC(=O)c1ccc(NCC2=CC(=O)c3ccccc3C2=O)cc1 | 31.6 | 34.7 | > 100 | 33.1 | 39.4 | > 26.5 | 46.8 | 42.2 | 32.2 | > 61.7 |  | 
28 | C/C=C/[C@@H]1O[C@H](CC#C[Si](C)(C)C)[C@@]2(C=O)C(C)=CC[C@H](C(C)C)[C@@H]12 | 66.1 | 82.7 | 63.1 | 48.5 | 56.3 | 52.2 | 54.1 | 33.5 | > 100 | 36.8 |  | 
29 | CC(C)(N=NC(C)(C)C1=NCCN1)C1=NCCN1 | > 100 | > 100 | > 100 | > 100 | > 100 | > 100 | > 100 | > 100 | > 100 | > 100 | > 100 | > 100
30 | Cc1cc2nc3c(C(O)CO)nn(-c4ccccc4)c3nc2cc1C (stereo not drawn) |  | 44 | 47.3 | 42.6 | 33.4 | > 100 | 51.9 | 56.2 | 59.3 | 43.6 |  | 
31 | CC1C=C(NCC2(CO)CCC2)NC(N)=N1 (stereo not drawn) | > 100 | > 100 | > 100 | > 100 | > 100 | > 100 | > 100 | > 100 | > 100 | > 100 |  | 
32 | Cn1c2ccccc2n2c3ccccc3c(=S)c(C#N)c12 |  | > 100 | > 100 | > 100 | > 100 | > 100 | > 100 | > 100 | > 100 | > 100 |  | 
33 | CCOC(=O)c1cc2cc(CSc3ccccc3)ccc2oc1=O | > 100 | > 100 | > 100 | > 100 | > 100 | > 100 | > 100 | > 100 | > 100 | > 100 |  | 
